“Also recorded” adds a separate entry of the source.
Tests used:
MM1.S cells = assay: Anti-proliferative activity by 3H-thymidine incorporation, combination with bortezomib; format: cell-based; conditions: 3 days, bortezomib 62.5 and 125.0 pM, pomalidomide 0.001-1.0 μM or Compound A-S 0.1-10.0 nM
Procedure: The anti-proliferative activity of pomalidomide (treatment of cells with 0.001-1.0 μM) combined with bortezomib (62.5 and 125.0 pM) or Compound A-S (treatment of cells with 0.1-10.0 nM) combined with bortezomib (62.5 and 125.0 pM) was measured by 3H-thymidine incorporation in MM1.S cells after 3 days of treatment in each condition. Combination indices (CI) were calculated using the Chou-Talalay Method for each combination. CI values below 1 indicated synergistic activity of combination.

KMS-12BM cells = assay: Apoptosis by flow cytometry, Annexin-V and ToPro3 staining, after proteasome inhibitor pulse; format: cell-based; conditions: then 3 days treatment, AnnV+/ToPro3+; for apoptosis / cell killing in combination with bortezomib: 1 hour pulse with bortezomib; for apoptosis / cell killing in combination with carfilzomib: 1 hour pulse with carfilzomib
Procedure: Apoptosis was measured in KMS-12BM cells by flow cytometry using Annexin-V (AnnV+; x-axis) and ToPro3+ (y-axis) staining after either vehicle (DMSO), pomalidomide (POM) or Compound A-S treatment over 3 days following 1 hour pulse treatment with DMSO, Bortezomib (BORT) or Carfilzomib (CFZ) at indicated concentrations.

Row | SMILES | anti-proliferative activity in combination with bortezomib (combination index, Chou-Talalay; CI below 1 = synergistic) (MM1.S cells) | apoptosis / cell killing in combination with bortezomib (KMS-12BM cells) | apoptosis / cell killing in combination with carfilzomib (KMS-12BM cells)
1 | O=C1CC[C@H](N2Cc3c(OCc4ccc(CN5CCOCC5)cc4)cccc3C2=O)C(=O)N1 [Compound A-S, (S)-3-(4-((4-(morpholinomethyl)benzyl)oxy)-1-oxoisoindolin-2-yl)piperidine-2,6-dione] | synergistic | induced cell killing; also recorded: apoptosis induced | induced cell killing; also recorded: apoptosis induced
2 | Nc1cccc2c1C(=O)N(C1CCC(=O)NC1=O)C2=O (stereo not drawn) [pomalidomide, reference compound] | synergistic | induced cell killing | induced cell killing
